From patent publication US20130109861A1, “TELOMERASE INHIBITORS AND A METHOD FOR THE PREPARATION THEREOF” (GOSUDARSTVENNOE UCHEBNO-NAUCHNOE UCHREZHDENIE KHIMICHESKIJJ …, priority 2010, published 2013)

How the values were obtained:
[1] = target: T1, telomerase (Homo sapiens, UniProt O14746); experiment: Inhibition of telomerase activity by TRAP-assay (telomeric repeat amplification, extracts of cervical carcinoma cell lines SiHa, C33A, CaSki, HeLa); assay type: biochemical; details: concentration at which inhibition of telomerase activity is 50%
T1 construct: telomeric repeats added to an oligonucleotide by telomerase in the cell extract; endogenous in cells; host or cells: SiHa, C33A, CaSki and HeLa cervical carcinoma cell extracts (CHAPS lysis)
Protocol: To test the inhibition of telomerase compounds prepared in this way, we used the method of amplification added telomeric repeats (TRAP-analysis). TRAP-analysis is a standard method for determining the activity of telomerase, due to some modification this method could be semi quantitative. The choice of method for detection of telomerase activity was determined by its wide coverage in the worlds literature, almost sensitivity, as well as the availability of equipment and reagents.
Telomeric repeats amplification protocol can be divided into three main steps: primer extension, amplification of the resulting product (s) and detection. In step lengthening telomeric repeats added to an oligonucleotide by telomerase in the cell extract. Telomerase recognizes it as a substrate (TS). In step of amplification of extension products of TS oligonucleotide by telomerase false signals may appear due to amplification of telomeres of chromosomes possibly have contained in the cell extract. To avoid this, the 5′-end of the oligonucleotide TS has no telomeric sequence, which prevents it to contact with telomeres, but is recognized as a telomerase substrate. Since human telomerase adds a series repeats with six nucleotides, the resulting lengthening of TS oligonucleotide by telomerase set of DNA fragments that differ in length synthesized. […]

With `C=CCN1C(=O)/C(=C/c2ccccn2)N=C1SCCSC1=N/C(=C\c2ccccn2)C(=O)N1CC=C` [Example 3, (5Z,5′Z)-2,2′-(ethan-1,2-diyldisulfanyldiyl)bis(5-(pyridine-2-ylmethylene)-3-allyl-3,5-dihydro-4H-imidazole-4-on)] the IC50 [1] was 2000 nM and the melting point was 187 °C.
